The values that follow come from patent US10533006B2, “Nitrogen-containing heterocycle and carbocycle derivatives having TrkA inhibitory activity” (Shionogi & Co., Ltd., priority 2016, dated 2020).

T1 sequence (P04629 33-796): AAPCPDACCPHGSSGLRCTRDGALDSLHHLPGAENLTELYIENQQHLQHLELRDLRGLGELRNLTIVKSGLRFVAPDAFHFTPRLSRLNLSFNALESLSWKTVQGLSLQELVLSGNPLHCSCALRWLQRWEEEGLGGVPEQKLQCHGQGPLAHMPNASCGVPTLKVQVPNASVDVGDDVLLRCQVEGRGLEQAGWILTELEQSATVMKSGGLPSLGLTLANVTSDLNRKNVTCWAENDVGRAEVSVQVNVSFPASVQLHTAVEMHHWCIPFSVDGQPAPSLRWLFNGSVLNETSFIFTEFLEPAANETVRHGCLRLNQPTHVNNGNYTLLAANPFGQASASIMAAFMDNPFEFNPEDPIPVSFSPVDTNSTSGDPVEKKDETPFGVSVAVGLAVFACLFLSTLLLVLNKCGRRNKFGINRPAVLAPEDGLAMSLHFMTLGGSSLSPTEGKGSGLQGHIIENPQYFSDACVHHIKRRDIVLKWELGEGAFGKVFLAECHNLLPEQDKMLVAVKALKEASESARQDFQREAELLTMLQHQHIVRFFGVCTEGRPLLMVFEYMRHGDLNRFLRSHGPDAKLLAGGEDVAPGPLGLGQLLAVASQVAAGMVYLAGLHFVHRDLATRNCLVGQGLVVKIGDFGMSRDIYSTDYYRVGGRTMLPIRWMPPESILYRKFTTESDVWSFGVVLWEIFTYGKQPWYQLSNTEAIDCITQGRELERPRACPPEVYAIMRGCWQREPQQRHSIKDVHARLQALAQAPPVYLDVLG

The first test has as its target T1, human TrkA (Homo sapiens, UniProt P04629).
T1 construct: purchased Lifetechnologies PV3144
Put plainly: Human TrkA inhibition assay. It counts as biochemical. To be noted: human TrkA phosphorylation inhibition, ATP 500 μmol/L; read-out: IC50_nM. The method in brief:
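Human TrkA (1 nmol/L final) preincubated 15 min with compound, then FL-peptide 27 (1.5 μmol/L) and ATP (500 μmol/L) added; 120 min at 37 °C in HEPES/MgCl2/DTT buffer. Mobility-shift measurement of phosphorylated vs non-phosphorylated substrate; IC50 by logistic regression over 3-fold dilution series.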
Consider `COCCN1C[C@@H](NC(=O)Nc2c(C)c(-c3cnc(OC)c(C(=O)NC[C@@H](C)O)c3)nn2-c2ccccc2)[C@H](c2ccccc2)C1` [Compound I-82], for which the IC50 was under 100 nM. Same read-out and setting: as for `COCCN1C[C@@H](NC(=O)Nc2c(C)c(-c3cnc(OC)c(C(=O)N[C@@H]4CCOC4)c3)nn2-c2ccccc2)[C@H](c2ccccc2)C1` [Compound I-84], the figure is under 100 nM; as for `COCCN1C[C@@H](NC(=O)Nc2c(C)c(-c3ccnc(C(=O)N[C@H]4CC[C@@H](O)CC4)c3)nn2-c2ccccc2)[C@H](c2ccccc2)C1` [Compound I-85], under 100 nM; as for `COCCN1C[C@@H](NC(=O)Nc2c(C)c(-c3ccnc(C(=O)N[C@@H]4CCOC4)c3)nn2-c2ccccc2)[C@H](c2ccccc2)C1` [Compound I-86], under 100 nM. The same measure, in the same setting: for `COCCN1C[C@@H](NC(=O)Nc2c(C)c(-c3ccnc(C(=O)N[C@H]4CCOC4)c3)nn2-c2ccccc2)[C@H](c2ccccc2)C1` [Compound I-87] the value was under 100 nM; for `COCCN1C[C@@H](NC(=O)Nc2c(C)c(-c3ccnc(C(=O)NC[C@H](C)O)c3)nn2-c2ccccc2)[C@H](c2ccccc2)C1` [Compound I-88], under 100 nM; for `COCC[C@@H]1C[C@@H](NC(=O)Nc2c(C)c(-c3cnc4c(cnn4C)c3)nn2-c2ccccc2)[C@H](c2ccnc(F)c2)N1C` [Compound I-94], under 100 nM. Regarding `COCC[C@@H]1C[C@@H](NC(=O)Nc2c(C)c(-c3cc(C)c(=O)n(C)c3)nn2-c2ccccc2)[C@H](c2ccccc2)C1` [Compound I-103], the IC50 is under 100 nM. The same measure, in the same setting: for `COCC[C@@H]1C[C@@H](NC(=O)Nc2c(C)c(-c3cc(C(=O)OC)c(=O)n(C)c3)nn2-c2ccccc2)[C@H](c2ccccc2)C1` [Compound I-116] the value was under 100 nM.

Consider `CNC(=O)c1cc(-c2nn(-c3ccccc3)c(NC(=O)N[C@@H]3C[C@@H](CCOC)C[C@H]3c3ccccc3)c2C)cn(C)c1=O` [Compound I-117], for which the IC50 was under 100 nM. Still for that read-out and setting: as for `COCC[C@@H]1C[C@@H](NC(=O)Nc2c(C)c(-c3cc(C(=O)NC4CCOCC4)c(=O)n(C)c3)nn2-c2ccccc2)[C@H](c2ccccc2)C1` [Compound I-118], the figure is under 100 nM; as for `COCC[C@@H]1C[C@@H](NC(=O)Nc2c(C)c(-c3cc(C(=O)NOCc4ccccc4)c(=O)n(C)c3)nn2-c2ccccc2)[C@H](c2ccccc2)C1` [Compound I-119], under 100 nM; as for `COCC[C@@H]1C[C@@H](NC(=O)Nc2c(C)c(-c3cc(C(=O)NO)c(=O)n(C)c3)nn2-c2ccccc2)[C@H](c2ccccc2)C1` [Compound I-120], under 100 nM. On the same count and under the same terms, for `CNC(=O)c1cc(-c2nn(-c3ccccc3)c(NC(=O)N[C@@H]3C[C@@H](CCOC)C[C@H]3c3ccccc3)c2C)cnc1OC` [Compound I-144] the value was under 100 nM; for `CNC(=O)c1cc(-c2nn(-c3ccccc3)c(NC(=O)N[C@@H]3C[C@@H](CCOC)C[C@H]3c3ccnc(F)c3)c2C)cnc1OC` [Compound I-145], under 100 nM; for `CNS(=O)(=O)c1cc(-c2nn(-c3ccccc3)c(NC(=O)N[C@@H]3C[C@@H](CCOC)C[C@H]3c3ccccc3)c2C)cn(C)c1=O` [Compound I-148], under 100 nM. Same read-out and setting: for `COCC[C@@H]1C[C@@H](NC(=O)Nc2c(C)c(-c3cc(C(=O)O)c(=O)n(C)c3)nn2-c2ccccc2)[C@H](c2ccccc2)C1` [Compound I-149] the value was under 100 nM. For `COCC[C@@H]1C[C@@H](NC(=O)Nc2c(C)c(-c3ccc(N=S(C)(C)=O)nc3)nn2-c2ccccc2)[C@H](c2ccccc2)C1` [Compound I-152], the IC50 is under 100 nM.

As to `COCC[C@@H]1C[C@@H](NC(=O)Nc2c(C)c(-c3cc(C(=O)NOC)c(=O)n(C)c3)nn2-c2ccccc2)[C@H](c2ccccc2)C1` [Compound I-153], the IC50 is under 100 nM. As to `COCC[C@@H]1C[C@@H](NC(=O)Nc2c(C)c(-c3cc(C#N)c(=O)n(C)c3)nn2-c2ccccc2)[C@H](c2ccccc2)C1` [Compound I-154], the IC50 was under 100 nM. As for `COCCN1C[C@@H](NC(=O)Nc2c(C)c(-c3ccnc(C(=O)NO)c3)nn2-c2ccccc2)[C@H](c2ccc(F)c(F)c2)C1` [Compound I-155], the IC50 was under 100 nM. In the case of `COCCN1C[C@@H](NC(=O)Nc2c(C)c(-c3ccnc(C(=O)NOC)c3)nn2-c2ccccc2)[C@H](c2ccc(F)c(F)c2)C1` [Compound I-156], the IC50 was under 100 nM. The same measure, in the same setting: for `COCCN1C[C@H](NC(=O)Nc2c(C)c(-c3cnc4c(cnn4C)c3)nn2-c2ccccc2)[C@@H](c2ccnc(F)c2)C1` [Compound I-160] the value was over 1000 nM; for `COCCN1C[C@@H](NC(=O)Nc2c(C)c(-c3cnc4c(c3)c(N=S(C)(C)=O)nn4C)nn2-c2ccccc2)[C@H](c2ccc(F)c(F)c2)C1` [Compound I-163], under 100 nM; for `COCC[C@@H]1C[C@@H](NC(=O)Nc2c(C)c(-c3cnc(OC)nc3)nn2-c2ccccc2)[C@H](c2ccnc(F)c2)C1` [Compound I-165], under 100 nM. Still for that read-out and setting: as for `COCC[C@@H]1C[C@@H](NC(=O)Nc2c(C)c(-c3cnc(N4CC(O)C4)nc3)nn2-c2ccccc2)[C@H](c2ccnc(F)c2)C1` [Compound I-166], the figure is under 100 nM.

On to `COCC[C@@H]1C[C@@H](NC(=O)Nc2c(C)c(-c3cnc4c(c3)oc(=O)n4C)nn2-c2ccccc2)[C@H](c2ccnc(F)c2)N1C` [Compound I-170], for which the IC50 is under 100 nM. Same read-out and setting: for `COCC[C@@H]1C[C@@H](NC(=O)Nc2c(C)c(-c3cnc4c(c3)nnn4C)nn2-c2ccccc2)[C@H](c2ccnc(F)c2)N1C` [Compound I-171] the value was under 100 nM; for `COCC[C@@H]1C[C@@H](NC(=O)Nc2c(C)c(-c3ccc(OC)nc3)nn2-c2ccccc2)[C@H](c2ccnc(F)c2)N1C` [Compound I-175], under 100 nM.

`CNC(=O)c1cc(-c2nn(-c3ccccc3)c(NC(=O)N[C@@H]3C[C@@H](CCOC)N(C)[C@H]3c3ccnc(F)c3)c2C)cnc1OC` [Compound I-176]: the IC50 is under 100 nM. On the same count and under the same terms, as for `COCC[C@@H]1C[C@@H](NC(=O)Nc2c3c(nn2-c2ccccc2)CCC3)[C@H](c2ccnc(F)c2)N1C` [Compound I-177], the figure is under 100 nM; as for `COCC[C@@H]1C[C@@H](NC(=O)Nc2c(C)c(C)nn2-c2ccccc2)[C@H](c2ccnc(F)c2)N1C` [Compound I-178], under 100 nM; as for `COCC[C@@H]1C[C@@H](NC(=O)Nc2c(C)c(-c3cnc(N4CC(OC)C4)nc3)nn2-c2ccccc2)[C@H](c2ccnc(F)c2)N1C` [Compound I-180], under 100 nM.

Still in this test, the particulars now being: human TrkA phosphorylation inhibition, ATP 500 μmol/L; read-out: IC50 value.
Take `COCC[C@@H]1C[C@@H](NC(=O)Nc2c(C)c(-c3cnc4c(cnn4C)c3)nn2-c2ccccc2)[C@H](c2ccccc2)C1` [Compound I-102]: the IC50 is 0.66 nM.

On to `COCCN1C[C@@H](NC(=O)Nc2c(C)c(-c3ccc(N=S(C)(C)=O)nc3)nn2-c2ccccc2)[C@H](c2ccc(F)c(F)c2)C1` [Compound I-151], for which the IC50 worked out at 1.5 nM. On the same count and under the same terms, for `COCCN1C[C@@H](NC(=O)Nc2c(C)c(-c3cnc4c(cnn4C)c3)nn2-c2ccccc2)[C@H](c2ccnc(F)c2)C1` [Compound I-159] the value was 1 nM; for `COCCN1C[C@@H](NC(=O)Nc2cc(-c3cnc4c(cnn4C)c3)nn2C)[C@H](c2ccc(F)c(F)c2)C1` [Compound I-167], 28 nM. Regarding `COCC[C@@H]1C[C@@H](NC(=O)Nc2c(C)c(-c3cnc4c(cnn4C)c3)nn2-c2ccccc2)[C@H](c2ccc(F)c(F)c2)N1C` [Compound I-172], the IC50 was determined as 0.94 nM.
